Target: T1, TRAP1 enzyme (Homo sapiens, UniProt Q12931)
T1 sequence (Q12931 60-704): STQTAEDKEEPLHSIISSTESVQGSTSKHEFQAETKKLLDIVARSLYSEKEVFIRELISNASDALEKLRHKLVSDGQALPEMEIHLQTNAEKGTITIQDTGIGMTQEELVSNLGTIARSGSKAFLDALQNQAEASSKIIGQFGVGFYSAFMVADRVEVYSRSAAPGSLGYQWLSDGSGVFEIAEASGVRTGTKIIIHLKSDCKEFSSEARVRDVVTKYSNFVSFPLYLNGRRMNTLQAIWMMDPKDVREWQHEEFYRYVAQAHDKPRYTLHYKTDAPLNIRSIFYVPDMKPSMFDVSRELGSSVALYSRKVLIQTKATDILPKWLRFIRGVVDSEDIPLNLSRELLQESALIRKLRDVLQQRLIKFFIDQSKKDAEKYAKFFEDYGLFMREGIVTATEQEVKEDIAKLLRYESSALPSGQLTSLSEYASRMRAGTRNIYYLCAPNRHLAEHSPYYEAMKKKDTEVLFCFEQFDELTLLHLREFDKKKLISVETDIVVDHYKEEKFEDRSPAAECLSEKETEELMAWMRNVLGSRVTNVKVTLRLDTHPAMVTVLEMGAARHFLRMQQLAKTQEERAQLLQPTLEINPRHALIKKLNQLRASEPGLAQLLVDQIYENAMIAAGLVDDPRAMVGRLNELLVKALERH
Experiment: ADP Glo assay of TRAP1 ATPase activity
Format: biochemical
Conditions: for EC50: TRAP1 ATPase activation, 150 nM Trap1, 20 μM ATP, geometric mean, read-out: ADP GLO DRC: GeoMean EC50; for Emax: read-out: ADP GLO DRC: Mean Emax
Experimental: Potency of test compounds to modulate the ATPase activity of TRAP1 enzyme was evaluated using ADP Glo assay. The assay is based on quantification of the ADP generated from ATP in the ATPase reaction. The assay is performed in two steps: first, after the ATPase reaction, an equal volume of ADP-Glo™ Reagent is added to terminate the ATPase reaction and deplete the remaining ATP. Second, the Kinase Detection Reagent is added to simultaneously convert ADP to ATP and allow the newly synthesized ATP to be measured using a luciferase/luciferin reaction.
All the assays were carried out in a 384-well Proxiplate. The buffer used was 25 mM Pipes pH-7.5, 40 mM KCl, 0.05 mM MgCl2, 0.025% BSA, 0.316 mM EGTA, 0.003% Empigen, 0.01% Igepal. 150 nM Trap1 enzyme was incubated with various concentrations of the test compound (0.79 μM-100 μM) at 37° C. for 30 mins (except in blank wells). 20 μM ATP was added to each well to start the reaction. The plate was spun for 1 min at 1200 rpm and then incubated at 37° C. for 60 mins. 5 μl of ADP Glo reagent was added to all the wells and spun the plate for 1 min at 1200 rpm and kept it on a shaker at ambient temperature for 60 mins. 10 μl of kinase detection mix was added to all the wells and the plate was read for Luminescence at 495 nm. The amount of ADP released was estimated from ATP/ADP standard curve generated at the same experimental conditions. Emax (Maximal percent activation) and EC50 (concentration for half maximal activation) were estimated by fitting the dose response data to a sigmoidal curve fitting equation using Graphpad Prism software V. 8.

Row | Structure (SMILES) | EC50 [µM] | Emax [%]
1 | COc1ccc(NC(=O)c2nn(C)c3c2CCC3)cc1S(=O)(=O)Nc1c(C)cccc1C [Compound 1010] | 10 to 20 | 200 to 300
2 | COc1ccc(NC(=O)c2ncn(-c3cccc(F)c3)n2)cc1S(=O)(=O)Nc1c(C)cccc1C [Compound 1011] | 20 to 100 | 200 to 300
3 | COc1ccc(NC(=O)c2ccc(C(F)(F)F)n2C)cc1S(=O)(=O)Nc1c(C)cccc1C [Compound 1013] | < 10 | 123 to 159
4 | COc1ccc(NC(=O)c2ccc3c(c2)C2CCCS2(=O)=N3)cc1S(=O)(=O)Nc1c(C)cccc1C (stereo not shown) [Compound 1016] | 20 to 100 | 200 to 300
5 | COc1ccc(NC(=O)c2cccc3nc(C)sc23)cc1S(=O)(=O)Nc1c(C)cccc1C [Compound 1017] | < 10 | 200 to 300
6 | CCc1cc(C(=O)Nc2ccc(OC)c(S(=O)(=O)Nc3c(C)cccc3C)c2)cc(C)n1 [Compound 1018] | 10 to 20 | > 300
7 | COc1ccc(NC(=O)c2ccc(-n3cccn3)cc2Cl)cc1S(=O)(=O)Nc1c(C)cccc1C [Compound 1019] | < 10 | 160 to 199
8 | COc1ccc(NC(=O)c2cc3cc(Br)cnc3s2)cc1S(=O)(=O)Nc1c(C)cccc1C [Compound 1020] | 10 to 20 | 200 to 300
9 | COc1ccc(NC(=O)c2ccc(C)nc2OC)cc1S(=O)(=O)Nc1c(C)cccc1C [Compound 1021] | < 10 | 200 to 300
10 | COc1ccc(NC(=O)c2cnccc2-c2ccccc2)cc1S(=O)(=O)Nc1c(C)cccc1C [Compound 1022] | 20 to 100 | 200 to 300
11 | COc1ccc(NC(=O)c2ccc3c(Br)nn(C)c3c2)cc1S(=O)(=O)Nc1c(C)cccc1C [Compound 1024] | < 10 | 200 to 300
12 | COc1ccc(NC(=O)c2ccccc2C2CC2)cc1S(=O)(=O)Nc1c(C)cccc1C [Compound 1028] | 10 to 20 | 160 to 199
13 | COc1ccc(NC(=O)c2ncn(Cc3ccccc3)n2)cc1S(=O)(=O)Nc1c(C)cccc1C [Compound 1029] | 10 to 20 | > 300
14 | COc1ccc(NC(=O)c2cc(-n3ccnc3)ccn2)cc1S(=O)(=O)Nc1c(C)cccc1C [Compound 1030] | 10 to 20 | 200 to 300
15 | COc1ccc(NC(=O)c2cc(C3CC3)on2)cc1S(=O)(=O)Nc1c(C)cccc1C [Compound 1031] | 10 to 20 | 200 to 300
16 | COc1ccc(NC(=O)c2cc(C(C)C)on2)cc1S(=O)(=O)Nc1c(C)cccc1C [Compound 1032] | < 10 | 200 to 300
17 | COc1ccc(NC(=O)c2ccc(F)c(-c3c(F)cccc3F)n2)cc1S(=O)(=O)Nc1c(C)cccc1C [Compound 1033] | < 10 | 160 to 199
18 | COc1ccc(NC(=O)c2cccc([C@H](F)c3cccc(F)c3)c2)cc1S(=O)(=O)Nc1c(C)cccc1C [Compound 1034] | < 10 | 160 to 199
19 | COc1ccc(NC(=O)c2cccc(Cc3ccc(F)cc3)c2)cc1S(=O)(=O)Nc1c(C)cccc1C [Compound 1036] | < 10 | 123 to 159
20 | COc1ccc(NC(=O)c2c(C)cc(Cl)nc2Cl)cc1S(=O)(=O)Nc1c(C)cccc1C [Compound 1037] | 20 to 100 | 160 to 199
21 | COc1ccc(NC(=O)c2ccnc(SC)n2)cc1S(=O)(=O)Nc1c(C)cccc1C [Compound 1039] | 20 to 100 | 160 to 199
22 | COc1ccc(NC(=O)c2cccc3c2OC(C)(C)CC3)cc1S(=O)(=O)Nc1c(C)cccc1C [Compound 1040] | < 10 | 200 to 300
23 | COc1ccc(NC(=O)c2cc3ccncc3s2)cc1S(=O)(=O)Nc1c(C)cccc1C [Compound 1043] | < 10 | 200 to 300
24 | COc1ccc(NC(=O)c2cccnc2-c2ccc(C)cc2)cc1S(=O)(=O)Nc1c(C)cccc1C [Compound 1045] | 10 to 20 | 123 to 159
25 | COc1ccc(NC(=O)c2cn(C(C)(C)C)nn2)cc1S(=O)(=O)Nc1c(C)cccc1C [Compound 1050] | 20 to 100 | 160 to 199

Row | Structure (SMILES) | EC50 [µM] | Emax [%]
26 | COc1ccc(NC(=O)c2ccc(C(C)(C)C)nc2)cc1S(=O)(=O)Nc1c(C)cccc1C [Compound 1052] | 20 to 100 | 160 to 199
27 | COc1ccc(NC(=O)c2cccnc2-c2ccccc2C)cc1S(=O)(=O)Nc1c(C)cccc1C [Compound 1053] | 20 to 100 | 160 to 199
28 | COc1ccc(NC(=O)c2onc3c2CCCC3)cc1S(=O)(=O)Nc1c(C)cccc1C [Compound 1056] | 20 to 100 | 123 to 159
29 | COc1ccc(NC(=O)c2ccc(Cl)nc2C)cc1S(=O)(=O)Nc1c(C)cccc1C [Compound 1057] | 20 to 100 | 160 to 199
30 | COc1ccc(NC(=O)c2cccc3ccn(C)c23)cc1S(=O)(=O)Nc1c(C)cccc1C [Compound 1060] | < 10 | 200 to 300
31 | COc1ccc(NC(=O)c2ccnn2-c2ccccc2)cc1S(=O)(=O)Nc1c(C)cccc1C [Compound 1061] | 10 to 20 | 200 to 300
32 | COc1ccc(NC(=O)c2cc(Br)cnc2C)cc1S(=O)(=O)Nc1c(C)cccc1C [Compound 1062] | 20 to 100 | 160 to 199
33 | COc1ccc(NC(=O)c2ccc3nccnc3c2)cc1S(=O)(=O)Nc1c(C)cccc1C [Compound 1063] | 20 to 100 | > 300
34 | COc1ccc(NC(=O)c2cnc3ccoc3c2)cc1S(=O)(=O)Nc1c(C)cccc1C [Compound 1064] | 20 to 100 | 200 to 300
35 | COc1ccc(NC(=O)c2cc(F)cc(Br)c2C)cc1S(=O)(=O)Nc1c(C)cccc1C [Compound 1065] | < 10 | 123 to 159
36 | COCCn1ccc(C(=O)Nc2ccc(OC)c(S(=O)(=O)Nc3c(C)cccc3C)c2)n1 [Compound 1066] | 20 to 100 | 160 to 199
37 | COc1ccc(NC(=O)c2ccnc(Cl)c2C)cc1S(=O)(=O)Nc1c(C)cccc1C [Compound 1067] | 20 to 100 | 160 to 199
38 | COc1ccc(NC(=O)c2cnn(Cc3ccccc3)c2)cc1S(=O)(=O)Nc1c(C)cccc1C [Compound 1068] | < 10 | 200 to 300
39 | COc1ccc(NC(=O)c2ncn(C(C)C)n2)cc1S(=O)(=O)Nc1c(C)cccc1C [Compound 1069] | 20 to 100 | 160 to 199
40 | COc1ccc(NC(=O)c2cnc(Cl)s2)cc1S(=O)(=O)Nc1c(C)cccc1C [Compound 1070] | < 10 | 200 to 300
41 | COc1ccc(NC(=O)c2ccn(-c3ccccc3)n2)cc1S(=O)(=O)Nc1c(C)cccc1C [Compound 1071] | 10 to 20 | 200 to 300
42 | COc1cnc(Cl)c(C(=O)Nc2ccc(OC)c(S(=O)(=O)Nc3c(C)cccc3C)c2)c1 [Compound 1072] | 20 to 100 | 160 to 199
43 | COc1ccc(NC(=O)c2cnc(OC)c(C(F)(F)F)c2)cc1S(=O)(=O)Nc1c(C)cccc1C [Compound 1073] | < 10 | 123 to 159
44 | COc1ccc(NC(=O)c2cn(C)nc2C(F)F)cc1S(=O)(=O)Nc1c(C)cccc1C [Compound 1074] | 20 to 100 | 160 to 199
45 | COc1ccc(NC(=O)c2cc(N3CCCC3)ccn2)cc1S(=O)(=O)Nc1c(C)cccc1C [Compound 1077] | < 10 | 160 to 199
46 | COc1ccc(NC(=O)c2cc(-c3ccnn3C)c(Cl)s2)cc1S(=O)(=O)Nc1c(C)cccc1C [Compound 1079] | < 10 | 160 to 199
47 | COc1ccc(NC(=O)c2cnc(Cl)cc2Cl)cc1S(=O)(=O)Nc1c(C)cccc1C [Compound 1082] | 20 to 100 | 200 to 300
48 | COc1ccc(NC(=O)c2c(I)cnn2C)cc1S(=O)(=O)Nc1c(C)cccc1C [Compound 1088] | 20 to 100 | 160 to 199
49 | COc1cc(C#N)cc(C(=O)Nc2ccc(OC)c(S(=O)(=O)Nc3c(C)cccc3C)c2)c1 [Compound 1090] | < 10 | 160 to 199
50 | COc1ccc(NC(=O)c2cc(F)ccc2OC(F)(F)F)cc1S(=O)(=O)Nc1c(C)cccc1C [Compound 1092] | < 10 | 160 to 199

— patent US20230174523A1, “BENZENESULFONAMIDE DERIVATIVES AS TRAP1 MODULATORS AND USES THEREOF” (Amathus Therapeutics, Inc., priority 2020, published 2023)
